The results in this text go back to ChEMBL document CHEMBL1817578, “2-({6-[(3R)-3-amino-3-methylpiperidine-1-yl]-1,3-dimethyl-2,4-dioxo-1,2,3,4-tetrahydro-5H-pyrrolo[3,2-d]pyrimidine-5-yl}methyl)-4-fluorobenzonitrile (DSR-12727): a potent, orally active dipeptidyl peptidase IV inhibitor without mechanism-based inactivation of CYP3A” (Bioorg Med Chem, 2011).

Assay [1] has as its target Dipeptidyl peptidase 4 (Homo sapiens, UniProt P27487). The assay can be described thus: Inhibition of DPP4 in human plasma assessed as formation of 7-amino-4-methylcoumarin from glycyl-L-proline 4-methylcoumaryl-7-amide by fluorescence assay.
In assay [2] the target is Cytochrome P450 2D6 (Homo sapiens, UniProt P10635). The assay can be described thus: Inhibition of CYP2D6. The assay is classed as ADME.
Chain of Cytochrome P450 2D6 (P10635 whole entry): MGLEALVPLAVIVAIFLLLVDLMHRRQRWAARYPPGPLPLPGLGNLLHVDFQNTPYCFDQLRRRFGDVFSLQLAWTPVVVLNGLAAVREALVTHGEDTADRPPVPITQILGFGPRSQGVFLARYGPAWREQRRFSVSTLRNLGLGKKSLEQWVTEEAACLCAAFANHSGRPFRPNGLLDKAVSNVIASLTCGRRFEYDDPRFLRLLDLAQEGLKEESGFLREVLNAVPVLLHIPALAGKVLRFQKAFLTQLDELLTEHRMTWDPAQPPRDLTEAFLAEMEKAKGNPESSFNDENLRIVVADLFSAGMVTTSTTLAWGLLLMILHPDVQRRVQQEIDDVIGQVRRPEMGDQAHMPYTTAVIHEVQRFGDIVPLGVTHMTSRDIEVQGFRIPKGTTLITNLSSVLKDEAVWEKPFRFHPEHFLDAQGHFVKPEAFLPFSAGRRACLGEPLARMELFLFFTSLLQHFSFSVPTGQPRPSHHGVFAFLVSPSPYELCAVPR
For assay [3], the target named is Cytochrome P450 3A4 (Homo sapiens, UniProt P08684). The assay is described as follows: Inhibition of CYP3A4. The assay is classed as ADME.
Chain of Cytochrome P450 3A4 (P08684 whole entry): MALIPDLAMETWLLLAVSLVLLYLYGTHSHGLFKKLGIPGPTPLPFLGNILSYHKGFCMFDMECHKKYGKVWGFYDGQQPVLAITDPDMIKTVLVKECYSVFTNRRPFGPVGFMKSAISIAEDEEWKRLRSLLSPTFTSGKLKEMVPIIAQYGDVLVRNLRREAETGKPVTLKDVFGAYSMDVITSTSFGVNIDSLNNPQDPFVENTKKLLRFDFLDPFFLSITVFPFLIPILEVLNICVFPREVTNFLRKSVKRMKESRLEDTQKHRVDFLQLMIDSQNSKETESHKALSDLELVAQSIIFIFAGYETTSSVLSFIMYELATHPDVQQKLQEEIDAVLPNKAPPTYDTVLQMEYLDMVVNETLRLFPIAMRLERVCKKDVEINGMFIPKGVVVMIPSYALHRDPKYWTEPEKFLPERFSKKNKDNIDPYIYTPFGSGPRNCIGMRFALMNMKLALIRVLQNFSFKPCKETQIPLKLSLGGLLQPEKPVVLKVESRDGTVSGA
Assay [4] addresses T1, Cytochrome P450 1A2 (Homo sapiens, UniProt P05177).
T1 sequence (P05177 whole entry): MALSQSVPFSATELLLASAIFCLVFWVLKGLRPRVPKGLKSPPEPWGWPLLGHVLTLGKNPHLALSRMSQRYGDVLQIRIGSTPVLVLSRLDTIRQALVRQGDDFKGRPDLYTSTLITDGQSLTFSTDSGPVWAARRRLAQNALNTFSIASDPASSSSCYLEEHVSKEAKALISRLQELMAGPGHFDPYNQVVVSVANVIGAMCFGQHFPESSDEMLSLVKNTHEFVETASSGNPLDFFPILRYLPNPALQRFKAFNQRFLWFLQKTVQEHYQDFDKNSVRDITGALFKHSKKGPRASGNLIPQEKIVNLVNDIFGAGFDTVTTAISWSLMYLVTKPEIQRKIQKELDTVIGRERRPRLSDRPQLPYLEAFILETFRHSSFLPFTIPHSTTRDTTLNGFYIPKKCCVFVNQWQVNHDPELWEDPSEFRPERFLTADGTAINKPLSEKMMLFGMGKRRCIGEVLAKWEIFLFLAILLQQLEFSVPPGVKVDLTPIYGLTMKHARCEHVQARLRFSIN
The assay is described as follows: Inhibition of CYP1A2. The assay is classed as ADME.

Chain of Dipeptidyl peptidase 4 (P27487 whole entry): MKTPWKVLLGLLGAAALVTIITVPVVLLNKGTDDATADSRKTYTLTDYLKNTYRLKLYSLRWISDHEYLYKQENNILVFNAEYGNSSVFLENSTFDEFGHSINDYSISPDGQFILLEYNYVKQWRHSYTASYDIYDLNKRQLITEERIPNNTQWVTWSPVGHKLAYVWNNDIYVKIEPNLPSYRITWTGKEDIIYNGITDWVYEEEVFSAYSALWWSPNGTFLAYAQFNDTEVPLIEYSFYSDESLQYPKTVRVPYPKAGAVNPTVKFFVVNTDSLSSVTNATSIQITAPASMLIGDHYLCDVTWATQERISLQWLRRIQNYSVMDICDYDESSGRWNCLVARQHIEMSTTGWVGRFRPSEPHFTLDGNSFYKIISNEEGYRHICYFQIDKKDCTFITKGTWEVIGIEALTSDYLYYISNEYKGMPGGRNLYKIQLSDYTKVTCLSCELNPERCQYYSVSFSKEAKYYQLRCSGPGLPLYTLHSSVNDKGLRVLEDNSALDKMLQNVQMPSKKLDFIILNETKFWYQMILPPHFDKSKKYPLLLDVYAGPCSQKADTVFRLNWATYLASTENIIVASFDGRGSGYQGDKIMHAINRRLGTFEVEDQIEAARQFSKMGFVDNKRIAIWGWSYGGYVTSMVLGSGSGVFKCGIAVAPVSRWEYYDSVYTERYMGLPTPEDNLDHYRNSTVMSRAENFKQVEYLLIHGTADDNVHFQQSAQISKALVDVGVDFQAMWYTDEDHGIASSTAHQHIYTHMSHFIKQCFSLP

For the compound `CC[C@]1(N)CCCN(c2cc3c(c(=O)n(C)c(=O)n3C)n2Cc2cc(F)ccc2C#N)C1`, the IC50 in assay [1] was more than 1000 nM.
Take `CC[C@@]1(N)CCCN(c2cc3c(c(=O)n(C)c(=O)n3C)n2Cc2cc(F)ccc2C#N)C1`: in assay [1], the IC50 came to 26 nM.
Regarding `Cn1c(=O)c2c(cc(N3CCC[C@@H](N)C3)n2Cc2cc(F)ccc2C#N)n(C)c1=O`, the IC50 in assay [1] stood at 0.34 nM; in assay [2], 7.5 µM; in assay [3], 1600 nM; in assay [4], 14.7 µM.

As usually defined, the IC50 is the point on the concentration scale where inhibition reaches its midpoint.
